Counter-ions that a name gives are not always drawn. Starred links: 1 amine or outer side, 2 acyl side, 3 side chain; linkers in the order of their positions; H or OH if unused. Positions of bridges follow the written chain, without caps; N, C: chain ends. Non-standard residues stand in square brackets, D forms with d. Residues, ends and D or L forms follow the SMILES beside them. Groups on a side chain read outwards from the residue. *: point of attachment. X33 = C[N+](C)(C)CCCCc1cn(-c2ccc(C[C@H](N[*:1])C(=O)[*:2])cc2)nn1; X51 = C[N+](C)(C)CCCc1cn(-c2ccc(C[C@H](N[*:1])C(=O)[*:2])cc2)nn1; Me3N+(CH2)2O(CH2)2O(CH2)2CO = C[N+](C)(C)CCOCCOCCC(=O)*; CH2CH2OCH2CH2OCH2CH2NMe3+ = C[N+](C)(C)CCOCCOCC*; Trp(7-Me) = Cc1cccc2c(C[C@H](N)C(=O)O)c[nH]c12; Lys(Me3) = C[N+](C)(C)CCCC[C@H](N)C(=O)O; CH2CH2OCH2CH2NMe3+ = C[N+](C)(C)CCOCC*; γGlu = O=C(O)[C@H](CCC(=O)[*:2])N[*:1]; 2Nal = N[C@@H](Cc1ccc2ccccc2c1)C(=O)O; AEF = NCCOc1ccc(C[C@H](N)C(=O)O)cc1; X79 = CN1CCC(N[*:1])(C(=O)[*:2])CC1; X10 = C[N+](C)(C)C[C@H](CC(=O)O)N*; X26 = C[N+](C)(C)CCCCc1cn(CC*)nn1; 3Pal = N[C@@H](Cc1cccnc1)C(=O)O; Myristoyl = CCCCCCCCCCCCCC(=O)*; Lys(Me) = CNCCCC[C@H](N)C(=O)O; Pen = CC(C)(S)[C@H](N)C(=O)O; Suc = O=C(CCC(=O)[*:2])[*:1]; Thp = NC1(C(=O)O)CCOCC1; X3 = C[N+](C)(C)CCCCC*; AEEA = NCCOCCOCC(=O)O; Tfa = O=C(C(F)(F)F)*; Sar = CNCC(=O)O; CHF2 = FC(F)*

The data set can be described thus: Exposed Polar Surface Area (EPSA). The class given is physicochemical. As to conditions: SFC on Chirex 3014 column; sample 1 mM DMSO stock; read-out: EPSA. A digest of the protocol:
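Retention-based polarity: supercritical CO2 with 20 mM ammonium formate in MeOH (5–60%, 20%/min), Chirex 3014 column, 35 °C. Calibrated against 8 standards to give EPSA (Å^2); each sample measured twice.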
As for `CC(=O)NCCCC[C@@H]1NC(=O)[C@H](Cc2c[nH]c3c(C)cccc23)NC(=O)[C@H]([C@@H](C)O)NC(=O)[C@H](CC(N)=O)NC(=O)[C@@H](NC(=O)C(F)(F)F)C(C)(C)SSC(C)(C)[C@@H](C(=O)N[C@@H](Cc2ccc(OCCN)cc2)C(=O)N[C@@H](Cc2ccc3ccccc3c2)C(=O)NC2(C(=O)N[C@@H](CCCCNC(C)=O)C(=O)N[C@@H](CC(N)=O)C(=O)N[C@@H](Cc3cccnc3)C(=O)N(C)CC(N)=O)CCN(C)CC2)NC1=O` [compound 55] (Tfa-[Pen]NT[Trp(7-Me)]K(Ac)[Pen][AEF][2Nal][X79]K(Ac)N[3Pal][Sar]-NH2; disulfide 1-6 (inferred)), the EPSA was found to be 159 A^2. For `CC(=O)NCCCC[C@@H]1NC(=O)[C@H](Cc2c[nH]c3c(C)cccc23)NC(=O)[C@H]([C@@H](C)O)NC(=O)[C@H](CC(N)=O)NC(=O)[C@@H](NC(C)=O)C(C)(C)SSC(C)(C)[C@@H](C(=O)N[C@@H](Cc2ccc(OCCN)cc2)C(=O)N[C@@H](Cc2ccc3ccccc3c2)C(=O)NC2(C(=O)N[C@@H](CCCCNC(=O)CCC(=O)N[C@@H](CC(=O)O)C[N+](C)(C)C)C(=O)N[C@@H](CC(N)=O)C(=O)N[C@@H](Cc3cccnc3)C(=O)N(C)CC(N)=O)CCOCC2)NC1=O` [compound 110] (Ac-[Pen]NT[Trp(7-Me)]K(Ac)[Pen][AEF][2Nal][Thp]K([Suc-X10])N[3Pal][Sar]-NH2; disulfide 1-6), the EPSA was found to be 171 A^2. Consider `CCCCCCCCCCCCCC(=O)N[C@@H](CCC(=O)NCCOCCOCC(=O)NCCOCCOCC(=O)NCCCC[C@@H]1NC(=O)[C@@H](NC(=O)CCOCCOCC[N+](C)(C)C)C(C)(C)SSC(C)(C)[C@@H](C(=O)N[C@@H](Cc2ccc(OCCCCC[N+](C)(C)C)cc2)C(=O)N[C@@H](Cc2ccc3ccccc3c2)C(=O)NC2(C(=O)N[C@@H](CCCCNC(=O)COCCOCCNC(=O)COCCOCCNC(=O)CC[C@H](NC(=O)CCCCCCCCCCCCC)C(=O)O)C(=O)N[C@@H](CC(N)=O)C(=O)N[C@@H](Cc3cccnc3)C(=O)N(C)CC(=O)N(C)C)CCOCC2)NC(=O)[C@H](CCCCN(C)C(C)=O)NC(=O)[C@H](Cc2c[nH]c3c(C)cccc23)NC(=O)[C@H]([C@@H](C)O)NC1=O)C(=O)O` [compound 398, cPEG3aCO-Pen(3)-K(PEG2PEG2gEC14)-T-7MeW-K(NMeAc)-Pen(3)-TMAPF-2Nal-THP-K(PEG2PEG2gEC14)-N-3Pya-Sar-CON(Me)2] ({Me3N+(CH2)2O(CH2)2O(CH2)2CO}-[Pen]K([AEEA-AEEA-γGlu-Myristoyl])T[Trp(7-Me)][Lys(Me)](Ac)[Pen]Y(X3)[2Nal][Thp]K([AEEA-AEEA-γGlu-Myristoyl])N[3Pal][Sar]-NMe2; disulfide 1-6), for which the EPSA worked out at 168 A^2.

Regarding `CC(=O)NCCCC[C@@H]1NC(=O)[C@H](Cc2c[nH]c3c(C)cccc23)NC(=O)[C@H]([C@@H](C)O)NC(=O)[C@H](CC(N)=O)NC(=O)[C@@H](NC(=O)CCOCCOCC[N+](C)(C)C)C(C)(C)SSC(C)(C)[C@@H](C(=O)N[C@@H](Cc2ccc(-n3cc(CCC[N+](C)(C)C)nn3)cc2)C(=O)N[C@@H](Cc2ccc3ccccc3c2)C(=O)NC2(C(=O)N[C@@H](CCCCNC(C)=O)C(=O)N[C@@H](CC(N)=O)C(=O)N[C@@H](Cc3cccnc3)C(=O)N(C)CC(N)=O)CCOCC2)NC1=O` [compound 420, cPEG3aCO-Pen(3)-N-T-7MeW-K(Ac)-Pen(3)-F(4TzlTMA3)-2Nal-THP-K(Ac)-N-3Pya-Sar-CONH2] ({Me3N+(CH2)2O(CH2)2O(CH2)2CO}-[Pen]NT[Trp(7-Me)]K(Ac)[Pen][X51][2Nal][Thp]K(Ac)N[3Pal][Sar]-NH2; disulfide 1-6), the EPSA came out at 170 A^2. Under `CC(=O)NCCCC[C@@H]1NC(=O)[C@H](Cc2c[nH]c3c(C)cccc23)NC(=O)[C@H]([C@@H](C)O)NC(=O)[C@H](CC(N)=O)NC(=O)[C@H](NC(C)=O)CSSC[C@@](C)(C(=O)N[C@@H](Cc2ccc(OCCCCC[N+](C)(C)C)cc2)C(=O)N[C@@H](Cc2ccc3ccccc3c2)C(=O)NC2(C(=O)N[C@@H](CCCCNC(C)=O)C(=O)N[C@@H](CC(N)=O)C(=O)N[C@@H](Cc3cccnc3)C(=O)N(C)CC(N)=O)CCOCC2)NC1=O` [compound 478, MeCO-C(3)-N-T-7MeW-K(Ac)-aMeC(3)-TMAPF-2Nal-THP-K(Ac)-N-3Pya-Sar-CONH2] stands 164 A^2. Under `CC(=O)N[C@@H]1C(=O)N[C@@H](COCCOCC[N+](C)(C)C)C(=O)N[C@@H]([C@@H](C)O)C(=O)N[C@@H](Cc2c[nH]c3c(C)cccc23)C(=O)N[C@@H](CCCCN(C)C(C)=O)C(=O)N[C@H](C(=O)N[C@@H](Cc2ccc(OCCOCCOCC[N+](C)(C)C)cc2)C(=O)N[C@@H](Cc2ccc3ccccc3c2)C(=O)NC2(C(=O)N[C@@H](CCCCN(C)C(C)=O)C(=O)N[C@@H](CC(N)=O)C(=O)N[C@@H](Cc3cccnc3)C(=O)N(C)CC(=O)N(C)C)CCOCC2)C(C)(C)SSC1(C)C` [compound 365] (Ac-[Pen]S(CH2CH2OCH2CH2NMe3+)T[Trp(7-Me)][Lys(Me)](Ac)[Pen]Y(CH2CH2OCH2CH2OCH2CH2NMe3+)[2Nal][Thp][Lys(Me)](Ac)N[3Pal][Sar]-NMe2; disulfide 1-6) stands 150 A^2. As to `CC(=O)N(C)CCCC[C@H](NC(=O)C1(NC(=O)[C@H](Cc2ccc3ccccc3c2)NC(=O)[C@H](Cc2ccc(OCCCCC[N+](C)(C)C)cc2)NC(=O)[C@H]2NC(=O)[C@H](CCCC[N+](C)(C)C)NC(=O)[C@H](Cc3c[nH]c4c(C)cccc34)NC(=O)[C@H]([C@@H](C)O)NC(=O)[C@H](CC(=O)N(C)C)NC(=O)[C@@H](NC(=O)CCOCCOCC[N+](C)(C)C)C(C)(C)SSC2(C)C)CCOCC1)C(=O)N[C@@H](CC(N)=O)C(=O)N[C@@H](Cc1cccnc1)C(=O)N(C)CC(=O)N(C)C` [compound 329, cPEG3aCO-Pen(3)-N(N(Me)2)-T-7MeW-K(Me)3-Pen(3)-TMAPF-2Nal-THP-K(NMeAc)-N-3Pya-Sar-CON(Me)2] ({Me3N+(CH2)2O(CH2)2O(CH2)2CO}-[Pen]D(NMe2)T[Trp(7-Me)][Lys(Me3)][Pen]Y(X3)[2Nal][Thp][Lys(Me)](Ac)N[3Pal][Sar]-NMe2; disulfide 1-6), the EPSA worked out at 155 A^2.

`CC(=O)NCCCC[C@@H]1NC(=O)[C@H](Cc2c[nH]c3c(C)cccc23)NC(=O)[C@H]([C@@H](C)O)NC(=O)[C@H](CC(N)=O)NC(=O)[C@@H](NC(C)=O)C(C)(C)SSC(C)(C)[C@@H](C(=O)N[C@@H](Cc2ccc(-n3cc(CCCC[N+](C)(C)C)nn3)cc2)C(=O)N[C@@H](Cc2ccc3ccccc3c2)C(=O)NC2(C(=O)N[C@@H](CCCCNC(C)=O)C(=O)N[C@@H](CC(N)=O)C(=O)N[C@@H](Cc3cccnc3)C(=O)N(C)CC(N)=O)CCOCC2)NC1=O` [compound 425] (Ac-[Pen]NT[Trp(7-Me)]K(Ac)[Pen][X33][2Nal][Thp]K(Ac)N[3Pal][Sar]-NH2; disulfide 1-6 (inferred)): the EPSA came to 161 A^2. `CCCCCCCCCCCC(=O)N[C@@H](CCC(=O)NCCOCCOCC(=O)NCCOCCOCC(=O)NCCCC[C@@H]1NC(=O)[C@H](Cc2c[nH]c3c(C)cccc23)NC(=O)[C@H]([C@@H](C)O)NC(=O)[C@H](CC(=O)N(C)C)NC(=O)[C@@H](NC(=O)C(COCCOCC[N+](C)(C)C)NC(=O)COCCOCCNC(=O)COCCOCCNC(=O)CC[C@H](NC(=O)CCCCCCCCCCC)C(=O)O)C(C)(C)SSC(C)(C)[C@@H](C(=O)N[C@@H](Cc2ccc(OCCOCCOCC[N+](C)(C)C)cc2)C(=O)N[C@@H](Cc2ccc3ccccc3c2)C(=O)NC2(C(=O)N[C@@H](CCCCN(C)C(C)=O)C(=O)N[C@@H](CC(N)=O)C(=O)N[C@@H](Cc3cccnc3)C(=O)N(C)CC(=O)N(C)C)CCOCC2)NC1=O)C(=O)O` (relative stereo) [compound 368, C12gEPEG2PEG2CO-APEG2Ser(S*)-Pen(3)-N(N(Me)2)-T-7MeW-K(PEG2PEG2gEC12)-Pen(3)-APEG3F-2Nal-THP-K(NMeAc)-N-3Pya-Sar-CON(Me)2]: the EPSA came out at 166 A^2. In the case of `Cc1cccc2c(C[C@@H]3NC(=O)[C@H]([C@@H](C)O)NC(=O)[C@H](CC(N)=O)NC(=O)[C@@H](NC(=O)CCOCCOCC[N+](C)(C)C)C(C)(C)SSC(C)(C)[C@@H](C(=O)N[C@@H](Cc4ccc(OCCN)cc4)C(=O)N[C@@H](Cc4ccc5ccccc5c4)C(=O)NC4(C(=O)N[C@@H](CCC(=O)N(C)C)C(=O)N[C@@H](CC(N)=O)C(=O)N[C@@H](Cc5cccnc5)C(=O)N(C)CC(N)=O)CCOCC4)NC(=O)[C@H](CCC(=O)N(C)C)NC3=O)c[nH]c12` [compound 137, cPEG3aCO-Pen(3)-N-T-7MeW-Q(N(Me)2)-Pen(3)-AEF-2Nal-THP-Q(N(Me)2)-N-3Pya-Sar-CONH2] ({Me3N+(CH2)2O(CH2)2O(CH2)2CO}-[Pen]NT[Trp(7-Me)]E(NMe2)[Pen][AEF][2Nal][Thp]E(NMe2)N[3Pal][Sar]-NH2; disulfide 1-6), the EPSA came to 160 A^2. Take `CC(=O)N(C)CCCC[C@@H]1NC(=O)[C@H](Cc2c[nH]c3c(C)cccc23)NC(=O)[C@H]([C@@H](C)O)NC(=O)[C@H](CC(=O)N(C)C)NC(=O)[C@@H](NC(=O)CCOCCOCC[N+](C)(C)C)C(C)(C)SSC(C)(C)[C@@H](C(=O)N[C@@H](Cc2ccc(OCCn3cc(CCCC[N+](C)(C)C)nn3)cc2)C(=O)N[C@@H](Cc2ccc3ccccc3c2)C(=O)NC2(C(=O)N[C@@H](CCCCN(C)C(C)=O)C(=O)N[C@@H](CC(N)=O)C(=O)N[C@@H](Cc3cccnc3)C(=O)N(C)CC(=O)N(C)C)CCOCC2)NC1=O` [compound 284, cPEG3aCO-Pen(3)-N(N(Me)2)-T-7MeW-K(NMeAc)-Pen(3)-Y(OTzlTMA4)-2Nal-THP-K(NMeAc)-N-3Pya-Sar-CON(Me)2] ({Me3N+(CH2)2O(CH2)2O(CH2)2CO}-[Pen]D(NMe2)T[Trp(7-Me)][Lys(Me)](Ac)[Pen]Y(X26)[2Nal][Thp][Lys(Me)](Ac)N[3Pal][Sar]-NMe2; disulfide 1-6): the EPSA came to 151 A^2. Under `CC(=O)NCCCC[C@@H]1NC(=O)[C@H](Cc2c[nH]c3c(C)cccc23)NC(=O)[C@H]([C@@H](C)O)NC(=O)[C@H](CC(N)=O)NC(=O)[C@@H](NC(=O)C(F)(F)F)C(C)(C)SSC(C)(C)[C@@H](C(=O)N[C@@H](Cc2ccc(OC(F)F)cc2)C(=O)N[C@@H](Cc2ccc3ccccc3c2)C(=O)NC2(C(=O)N[C@@H](CCCCNC(C)=O)C(=O)N[C@@H](CC(N)=O)C(=O)N[C@@H](Cc3cccnc3)C(=O)N(C)CC(N)=O)CCOCC2)NC1=O` [compound 54] (Tfa-[Pen]NT[Trp(7-Me)]K(Ac)[Pen]Y(CHF2)[2Nal][Thp]K(Ac)N[3Pal][Sar]-NH2; disulfide 1-6 (inferred)) stands 156 A^2.

Source of the values: US20260022143A1, “Cyclic Peptide Inhibitors of IL-23” (JANSSEN PHARMACEUTICA NV, priority 2022, published 2026).
